# Non-standard residues stand in square brackets, D forms with d. Residues, ends and D or L forms follow the SMILES beside them.
# Species: Rattus norvegicus
# Assay: The compound was tested in vitro for the growth hormone release in rat pituitary cell assays
# Type: functional, Pituitary gland cell
# Settings: Rattus norvegicus, Pituitary gland cell
row,SMILES,EC50 [nM]
1,Cc1noc(-c2ccccc2-c2ccc(CN3C(=O)[C@H](NC(=O)CC(C)(C)N)CCc4ccccc43)cc2)n1,1050
2,Cn1ncnc1-c1ccccc1-c1ccc(CN2C(=O)[C@H](NC(=O)CC(C)(C)N)CCc3ccccc32)cc1,265
3,CC(C)(N)CC(=O)N[C@@H]1CCc2ccccc2N(Cc2ccc(-c3sccc3-c3nn[nH]n3)cc2)C1=O,140
4,CC(C)(N)CC(=O)N[C@@H]1CCc2ccccc2N(Cc2ccc(-c3cscc3-c3nn[nH]n3)cc2)C1=O,150
5,CC(C)(N)CC(=O)N[C@@H]1CCc2ccccc2N(Cc2ccc(-n3cccc3-c3nn[nH]n3)cc2)C1=O,275
6,CC(C)(N)CC(=O)N[C@@H]1CCc2ccccc2N(Cc2ccc(-c3ccccc3-c3nc[nH]n3)cc2)C1=O,90
7,CC(C)(N)CC(=O)N[C@@H]1CCc2ccccc2N(Cc2ccc(-c3cccnc3-c3nn[nH]n3)cc2)C1=O,2350
8,COc1nsnc1-c1ccccc1-c1ccc(CN2C(=O)[C@H](NC(=O)CC(C)(C)N)CCc3ccccc32)cc1,1800
9,CC(C)(N)CC(=O)N[C@@H]1CCc2ccccc2N(Cc2ccc(-c3ccccc3-c3ncno3)cc2)C1=O,30
10,Cc1nnc(-c2cscc2-c2ccc(CN3C(=O)[C@H](NC(=O)CC(C)(C)N)CCc4ccccc43)cc2)o1,125
11,CC(C)(N)CC(=O)N[C@@H]1CCc2ccccc2N(Cc2ccc(-c3ccccc3C(=O)O)cc2)C1=O,2500
12,C[C@H](NC(=O)[C@@H](Cc1c[nH]c2ccccc12)NC(=O)[C@@H](N)Cc1c[nH]cn1)C(=O)N[C@@H](Cc1c[nH]c2ccccc12)C(=O)N[C@H](Cc1ccccc1)C(=O)N[C@@H](CCCCN)C(N)=O (H-H[dW]AW[dF]K-NH2),2

# Same assay, conditions: pituitary gland cell
row,SMILES,EC50 [nM]
1,CC(C)(N)CC(=O)N[C@@H]1CCc2ccccc2N(Cc2ccc(-c3ccccc3-c3nn[nH]n3)cc2)C1=O,125

# From ChEMBL document CHEMBL1129871, “INVESTIGATION OF BIOISOSTERS OF THE GROWTH HORMONE SECRETAGOGUE L-692,429” (Bioorg Med Chem Lett, 1997)
